In patent US20180153995A1, “USE OF ANTIMICROBIAL POLYMERS FOR RE-SENSITIZATION OF MICROORGANISMS UPON EMERGENCE OF RESISTANCE TO ANTI-MICROBIAL AGENTS” (Technion Research & Development Foundation Limited, priority 2008, published 2018):
Several values for one entry are separate records, joined by “and”; a condition that tells them apart may be missing. Equal values may be shown once. Read-outs that look alike come from different tables or passages of the source.

Legend:
[1] = test system: ATCC 29213; test: microbe, parasite or virus in culture; format: cell-based, Staphylococcus aureus; conditions: Staphylococcus aureus, ATCC29213; read-out: MIC
Method: (§1) MICs were determined by microdilution susceptibility testing in 96-well plates (by Nunc) using inocula of 10^5 bacteria per ml. Cell populations were evaluated by optical density measurements at 620 nm and were calibrated against a set of standards. Hundred (100) μl of a bacterial suspension were added to 100 μl of culture medium (control) or to 100 μl of culture medium containing various polymer concentrations in 2-fold serial dilutions. Inhibition of proliferation was determined by optical density measurements at 620 nm after an incubation period of 24 hours at 37° C.
(§2) The fractionary inhibitory (FIC) concentration index for combinations of two antimicrobial agents was calculated as follows: FIC index=FICA+FICB=A/MICA+B/MICB where A and B are the MIC values of agent A and agent B in the combination, MICA and MICB are the MICs of agent A and agent B alone, and FICA and FICB are the FICs of agent A and agent B.
(§3) The FIC indexes were interpreted as follows: less than 0.5 indicates a clear re-sensitizing effect; from 0.5 to 4 indicates a marginal or null re-sensitizing effect; and over 4 indicates antagonism.

[2] = test system: MRSA 15918; test: microbe, parasite or virus in culture; format: cell-based, Staphylococcus aureus; conditions: Staphylococcus aureus, MRSA; read-out: MIC
Method: as §1, §2, §3

[3] = test system: E. coli CI14213; format: cell-based, Escherichia coli
Summary of the method: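 Broth microdilution, inocula 10^5 bacteria/ml, 24 h at 37 °C. Growth read as OD620 against calibration standards.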

[4] = test system: MRSA 15903; test: Sub-MIC time-kill curves (CFU counts); format: cell-based, Staphylococcus aureus
Method: At the specified time points of incubation (37° C. under shaking), cultures were subjected to serial 10-fold dilutions (up to 10^6) by adding 50 μl of sample to 450 μl saline (0.85% NaCl). Cell counts were determined using the drop plate method (three 20-μl drops onto LB-agar plates). Plates were incubated at 37° C. and colonies were counted for the calculation after incubation for 24 hours.

[5] = test system: S. aureus ATCC 29213; test: microbe, parasite or virus in culture; conditions: Staphylococcus aureus, ATCC29213, read-out: Oxacillin's MIC
Method: In parallel, MIC evolution was compared concomitantly for each new sub-culture, using bacteria harvested from control wells (wells cultured without antimicrobial agent from the previous sub-culture). The relative MIC was calculated for each experiment from the ratio of MIC obtained for subculture “n” to that obtained for first-time exposure.
The relative MIC was determined as the normalized ratio of the MIC obtained for a given subculture to the MIC of the control.
MICs were determined by microdilution susceptibility testing in 96-well plates using inocula of 10^5 bacteria per ml. Cell populations were evaluated by optical density measurements at 600 nm and were calibrated against a set of standards.
In parallel, MIC evolution was compared concomitantly for each new generation, using bacteria harvested from control wells (wells cultured without antimicrobial agent from the previous generation). The relative MIC was calculated for each experiment from the ratio of MIC obtained for subculture “n” to that obtained for first-time exposure. […] MICs were determined by microdilution susceptibility testing in 96-well plates. Cell populations were evaluated by optical density measurements at 600 nm and were calibrated against a set of standards.

[6] = test system: E. coli N281 (L22 mutation); format: cell-based, Escherichia coli; conditions: E. coli N281 L22 mutation
[7] = test system: E. coli N282 (L4 mutation); format: cell-based, Escherichia coli; conditions: E. coli N282 L4 mutation

Compound | MIC [1] [µg/mL] | MIC [2] [µg/mL] | activity of oxacillin alone ([3]; E. coli CI14213, 24 hours incubation) | concentration up to which E. coli is insensitive to oxacillin ([3]; E. coli, oxacillin alone) [µg/mL] | reduction of bacterial counts compared to the most active single agent ([4]; 24 hours, oxacillin 0.78 μM + NC12(KNC12K)2NH2 2.1 μM) [log10 CFU/ml] | surviving organisms below the starting inoculum ([4]; oxacillin 0.78 μM + NC12(KNC12K)2NH2 2.1 μM) [log10 CFU/ml] | bactericidal activity, agent alone ([4]; sub-MIC time-kill, single agent) | MIC [5] | Antibiotic MIC ([6]; +¼ MIC C12K(NC8K)5NH2) [µg/mL] | Antibiotic MIC ([6]; +¼ MIC C12K(NC8K)7NH2) | Antibiotic MIC ([6]; +½ MIC C12K(NC8K)5NH2) [µg/mL] | Antibiotic MIC ([6]; +⅓ MIC C12K(NC8K)7NH2) [µg/mL] | Antibiotic MIC ([6]; no OAK, Table 18) [µg/mL] | Antibiotic MIC ([6]; no OAK, Table 19) [µg/mL] | Antibiotic MIC ([7]; +¼ MIC C12K(NC8K)5NH2) [µg/mL] | Antibiotic MIC ([7]; +¼ MIC C12K(NC8K)7NH2) [µg/mL] | Antibiotic MIC ([7]; +½ MIC C12K(NC8K)5NH2) [µg/mL] | Antibiotic MIC ([7]; +⅓ MIC C12K(NC8K)7NH2) [µg/mL] | Antibiotic MIC ([7]; no OAK, Table 18) [µg/mL] | Antibiotic MIC ([7]; no OAK, Table 19) [µg/mL]
Cc1onc(-c2ccccc2)c1C(=O)N[C@@H]1C(=O)N2[C@@H]1SC(C)(C)[C@@H]2C(=O)O [Oxacillin, oxacillin] | 0.09 | 64 | inactive | > 512 | 4.7 | 0.76 | no bactericidal activity | 0.28 µM and 0.125 µg/mL |  |  |  |  |  |  |  |  |  |  |  | 
CC[C@H]1OC(=O)[C@H](C)[C@@H](O[C@H]2C[C@@](C)(OC)[C@@H](O)[C@H](C)O2)[C@H](C)[C@@H](O[C@@H]2O[C@H](C)C[C@H](N(C)C)[C@H]2O)[C@](C)(O)C[C@@H](C)C(=O)[C@H](C)[C@@H](O)[C@]1(C)O [Erythromycin, erythromycin] |  |  |  |  |  |  |  |  | 512 | >512-512 μg/ml | 16 to 32 | 512 | >512 | >512 | 512 | 512 | 8 to 16 | 512 | 512 | 512
